Results reported in US20170065564A1, “BIS-CYCLIC GUANIDINE COMPOUND COMPOSITIONS, METHODS OF USE AND TREATMENT THEREOF” (University of South Florida, priority 2014, published 2017).
Converted amounts (≈) assume the structure as drawn.

Legend:
[1] = tested on: K. pneumoniae; test: Resistance serial passage assay; format: cell-based, Klebsiella pneumoniae; conditions: 8 passages, concentration doubled each day
Procedure: (§1) ESKAPE pathogens were grown overnight in liquid media at 37° C. These cultures were then diluted 1:100 in fresh media, and seeded into a 96-well plate. Lead bis-cyclic guanidines or control agents were added to respective wells at half MIC concentrations. Plates were then incubated for 24 hours at 37° C., with bacteria removed from these cultures on the following day, to inoculate fresh media (1:100 dilution) containing compounds at a 2-fold higher concentrations. These were then grown overnight, and the procedure repeated for a total of eight days. […] Each experiment was performed in triplicate, yielding identical results.

[2] = tested on: Enterococcus faecium biofilm; test: Minimum biofilm eradication concentration (MBEC) assay; format: cell-based; conditions: 24 h biofilm, purified compound
Procedure: (§2) The minimum biofilm eradication concentration (MBEC) was determined in 96-well microtiter plates as follows. Broth cultures of ESKAPE strains were grown using the conditions described above. Biofilms for each of the ESKAPE pathogens were generated from these as we have previously described for S. aureus, however human serum was not used for non-staphylococcal organisms.^44 46 For all organisms, biofilms were developed by standardizing an overnight culture into fresh media to an OD600 of 0.5 and adding 150 μl into each well of a 96-well microtiter plate. […] These cultures were incubated at 37° C. overnight alongside no drug controls. After 24 hours, the media was removed from wells and the biofilm resuspended in phosphate buffered saline (PBS). Cultures were mixed by vigorous pipetting, before being serially diluted in PBS, and plated in duplicate on relevant agar. Plates were incubated at 37° C. for 24 hours, and CFUs determined by enumeration. Each analysis was performed using three technical replicates, and antibiofilm activity was determined by comparing treated to untreated samples.

[3] = tested on: Klebsiella pneumoniae biofilm; test: as above; format: cell-based; conditions: 24 h biofilm, purified compound
Procedure: as §2

[4] = tested on: Enterobacter cloacae biofilm; test: as above; format: cell-based; conditions: 24 h biofilm, purified compound
Procedure: as §2

[5] = tested on: Pseudomonas aeruginosa biofilm; test: as above; format: cell-based; conditions: 24 h biofilm, purified compound
Procedure: as §2

[6] = tested on: Staphylococcus aureus biofilm; test: as above; format: cell-based; conditions: 24 h biofilm, purified compound
Procedure: as §2

[7] = tested on: Acinetobacter baumannii biofilm; test: as above; format: cell-based; conditions: 24 h biofilm, purified compound
Procedure: as §2

[8] = tested on: Enterobacter cloacae; test: MIC micro broth dilution assay; format: cell-based; conditions: for MIC: Enterobacter cloacae
Method in brief: (§3)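 Strains were multidrug-resistant clinical isolates grown in LB (Gram-negative) or TSB (Gram-positive), diluted 1:1,000 before compound addition.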

[9] = tested on: E. cloacae; format: cell-based, Enterobacter cloacae; conditions: 8 passages, concentration doubled each day
Procedure: ESKAPE pathogens were grown overnight in liquid media at 37° C. These cultures were then diluted 1:100 in fresh media, and seeded into a 96-well plate. Lead bis-cyclic guanidines or control agents were added to respective wells at half MIC concentrations. […] These were then grown overnight, and the procedure repeated for a total of eight days.

[10] = tested on: Staphylococcus aureus; test: MIC micro broth dilution assay; format: cell-based; conditions: for MIC: Staphylococcus aureus
Method in brief: as §3

[11] = tested on: Klebsiella pneumoniae; test: MIC micro broth dilution assay; format: cell-based; conditions: for MIC: Klebsiella pneumoniae
Method in brief: as §3

[12] = tested on: A. baumannii; test: Resistance serial passage assay; format: cell-based, Acinetobacter baumannii; conditions: 8 passages, concentration doubled each day
Procedure: as §1

[13] = panel of E. cloacae clinical isolates
[14] = panel of K. pneumoniae clinical isolates

In the case of `CCCC[C@H]1CN(CCCC[C@H]2CNC(=N)N2CCc2cccc(C(F)(F)F)c2)C(=N)N1CCCCC1CCCCC1` [Compound 2, (S)-4-butyl-3-(4-cyclohexylbutyl)-1-(4-((S)-2-imino-3-(3-(trifluoromethyl)phenethyl)imidazolidin-4-yl)butyl)imidazolidin-2-imine], the “increase in MIC after serial passage” value [1] is reported as 8 fold, the MBEC50 [2] is reported as 29.20 µM and the MBEC50 [3] is reported as 4.65 µM. The MBEC50 [4] was 13.44 µM, the MBEC50 [5] was 30.62 µM and the MBEC50 [6] was 2.18 µM. For the same compound, the MBEC50 [7] was 15.84 µM, the “stacked score activity, 100/MIC, E” value ([8]; E. cloacae) was 20 and the MIC ([8]; E. cloacae isolate 1404) was 2 µM (≈ 1.18 µg/mL). For the same compound, the MIC ([8]; E. cloacae isolate 1405) was 2 µM (≈ 1.18 µg/mL), the MIC ([8]; E. cloacae isolate 1430) was 2 µM (≈ 1.18 µg/mL) and the MIC ([8]; E. cloacae isolate 1431) was 2 µM (≈ 1.18 µg/mL). The MIC ([8]; E. cloacae isolate 1445) was 2 µM (≈ 1.18 µg/mL), the MIC ([8]; E. cloacae isolate 1446) was 7 µM (≈ 4.14 µg/mL) and the MIC ([8]; E. cloacae isolate 1447) was 3 µM (≈ 1.77 µg/mL). It also gave an MIC ([8]; E. cloacae isolate 1448) of 3 µM (≈ 1.77 µg/mL), an MIC ([8]; E. cloacae isolate 1454) of 2 µM (≈ 1.18 µg/mL) and an MIC ([8]; E. cloacae isolate 1455) of 2 µM (≈ 1.18 µg/mL). The MIC ([8]; purified compound, Table 1) was 1.52 µM (≈ 0.898 µg/mL), the “concentration inhibiting 70% of strains” value [8, 13] was 2 µM and the “concentration inhibiting 90% of isolates” value [8, 13] was 5 µM. For the same compound, the “increase in MIC after serial passage” value [9] was 8 fold, the “stacked score activity, 100/MIC, S” value ([10]; S. aureus) was 33 and the MIC ([10]; S. aureus isolate 542) was 2 µM (≈ 1.18 µg/mL). It also gave an MIC ([10]; S. aureus isolate 626) of 2 µM (≈ 1.18 µg/mL), an MIC ([10]; S. aureus isolate 635) of 2 µM (≈ 1.18 µg/mL) and an MIC ([10]; S. aureus isolate 648) of 2 µM (≈ 1.18 µg/mL). The MIC ([10]; S. aureus isolate 690) was 2 µM (≈ 1.18 µg/mL), the MIC ([10]; S. aureus isolate 693) was 2 µM (≈ 1.18 µg/mL) and the MIC ([10]; S. aureus isolate 715) was 2 µM (≈ 1.18 µg/mL). It also gave an MIC ([10]; S. aureus isolate 728) of 2 µM (≈ 1.18 µg/mL), an MIC ([10]; S. aureus isolate 834) of 2 µM (≈ 1.18 µg/mL) and an MIC ([10]; S. aureus isolate 1043) of 2 µM (≈ 1.18 µg/mL). For the same compound, the MIC ([10]; S. aureus isolate 1049) was 2 µM (≈ 1.18 µg/mL), the MIC ([10]; purified compound, Table 1) was 1.52 µM (≈ 0.898 µg/mL) and the “stacked score activity, 100/MIC, K” value ([11]; K. pneumoniae) was 20. The MIC ([11]; K. pneumoniae isolate 1408) was 2 µM (≈ 1.18 µg/mL), the MIC ([11]; K. pneumoniae isolate 1409) was 3 µM (≈ 1.77 µg/mL) and the MIC ([11]; K. pneumoniae isolate 1410) was 2 µM (≈ 1.18 µg/mL). It also gave an MIC ([11]; K. pneumoniae isolate 1411) of 2 µM (≈ 1.18 µg/mL), an MIC ([11]; K. pneumoniae isolate 1412) of 2 µM (≈ 1.18 µg/mL) and an MIC ([11]; K. pneumoniae isolate 1413) of 2 µM (≈ 1.18 µg/mL). For the same compound, the MIC ([11]; K. pneumoniae isolate 1433) was 2 µM (≈ 1.18 µg/mL), the MIC ([11]; K. pneumoniae isolate 1434) was 3 µM (≈ 1.77 µg/mL) and the MIC ([11]; K. pneumoniae isolate 1440) was 5 µM (≈ 2.95 µg/mL). The MIC ([11]; K. pneumoniae isolate 1441) was 2 µM (≈ 1.18 µg/mL), the MIC ([11]; purified compound, Table 1) was 1.52 µM (≈ 0.898 µg/mL) and the “concentration inhibiting 70% of strains” value [11, 14] was 2 µM. For the same compound, the “concentration inhibiting 90% of isolates” value [11, 14] was 5 µM and the “increase in MIC after serial passage” value [12] was 8 fold.
